# pIC50: −log10 of the molar value. Like-named read-outs stand apart in the source and are kept apart here.
# Target: PDE10 from pig striatum (Sus scrofa, UniProt A0A287B941)
# Assay: Inhibition of PDE10 from pig striatum ([3H]-cAMP SPA)
# Assay type: biochemical
# Conditions: read-out: PDE10 pig IC50
# Description: Phosphodiesterase isoenzyme 10 (PDE10) activity was determined in preparations of human recombinant PDE10A and PDE10 from pig striatum, respectively.
# Striatum from male hybrid pigs (150 kg) were collected and frozen at −70° C.
# At the day of preparation 0.5 g striatum was homogenised in 10 ml 50 mM Tris/Mg-buffer at 4° C. and centrifuged for one hour at 100000 g. The supernatant was removed and the pellet was resuspended in the same buffer, but containing 1% Triton and incubated for 45 min at 4° C. The membrane fraction was applied onto a 5 ml Hi Trap™ QHP column at the Akta-FPLC. After washing the column the bound PDE protein was eluted with an increasing sodium chloride gradient (O mM-500 mM sodium chloride) in 50 mM Tris/Mg-buffer at 4° C. in the presence of 1% Triton. […] The fractions with PDE10-activity were pooled and frozen in aliquots until use at −20° C.
# (§1) PDE10 activity was determined in a one step procedure in microtiterplates. […] Nonspecific activity was tested without the enzyme. The reaction was initiated by addition of the substrate solution and was carried out at 37° C. for 30 minutes. Enzymatic activity was stopped by addition of 25 μl YSi-SPA-beads (Amersham-Pharmacia). One hour later the mixture was measured in a liquid scintillation counter for microtiterplates (Microbeta Trilux). To pipette the incubation mixture a robot Biomek (Fa. Beckman) is used. […] For determination of IC50 values the Hill-plot, 2-parameter-model, was used.
# The phosphodiesterase isoenzyme 10 (PDE10) activity was determined in preparations of rat, pig and guinea pig striatum respectively. Striatum from male Wistar rats (180-200 g), male hybrid pigs (150 kg) and male guinea pigs (CRL (HA), 500 g) respectively were collected and frozen at −70° C.
# At the day of preparation 0.5 g striatum was homogenized in 10 ml 50 mM Tris/Mg-buffer at 4° C. and centrifuged for one hour at 100000 g. The supernatant is called the cytosolic fraction and was removed and stored on ice. The pellet was resuspended in the same buffer, but containing 1% Triton and incubated for 45 min at 4° C. Both fractions were independently applied onto a 5 ml Hi Trap™ QHP column at the Akta-FPLC. After washing the columns the bound PDE protein was eluted with an increasing sodium chloride gradient (0 mM-500 mM sodium chloride) in 50 mM Tris/Mg-buffer at 4° C. for the cytosolic fraction and in the presence of 1% Triton for the membrane fraction. […] The fractions with PDE10-activity were pooled and frozen in aliquots until use at −20° C.
# as §1, with “YSi-SPA beads” for “YSi-SPA-beads”
pIC50 (Table 7),pIC50 (Table 8),SMILES
> 8.00,–,"COc1ccc(-c2nc(C)c3c(C)nc4ccc(OC)nc4n23)c(Cl)c1 [Example 18, 9-(2-Chloro-4-methoxyphenyl)-2-methoxy-6,7-dimethylimidazo[1,5-a]pyrido[3,2-e]pyrazine]"
–,< 7.00,"CNC(=O)c1cccc(-c2nc(C)c3c(C)nc4ccc(OC)nc4n23)c1 [Example 100, 3-(2-Methoxy-6,7-dimethylimidazo[1,5-a]pyrido[3,2-e]pyrazin-9-yl)-N-methylbenzamide]"
–,7.00 to 8.00,"COc1ccc2nc(C)c3c(C)nc(-c4ccc(Cl)s4)n3c2n1 [Example 92, 9-(5-Chloro-2-thienyl)-2-methoxy-6,7-dimethylimidazo[1,5-a]pyrido[3,2-e]pyrazine]"
–,7.00 to 8.00,"COc1ccc2nc(NS(C)(=O)=O)c3c(C)nc(CCC(F)(F)F)n3c2n1 [Example 45, N-[2-Methoxy-7-methyl-9-(3,3,3-trifluoropropyl)imidazo[1,5-a]pyrido[3,2-e]pyrazin-6-yl]methanesulfonamide]"
> 8.00,–,"COc1ccc2nc(C)c3c(C)nc(-c4ccc(Cl)cc4C)n3c2n1 [Example 13, 9-(4-Chloro-2-methylphenyl)-2-methoxy-6,7-dimethylimidazo[1,5-a]pyrido[3,2-e]pyrazine]"
–,> 8.00,"COc1ccc2nc(C)c3c(C)nc(-c4cc(Cl)ccc4C)n3c2n1 [Example 79, 9-(5-Chloro-2-methylphenyl)-2-methoxy-6,7-dimethylimidazo[1,5-a]pyrido[3,2-e]pyrazine]"
–,7.00 to 8.00,"COc1ccc2nc(C)c3c(C)nc(-c4ccoc4)n3c2n1 [Example 58, 9-(3-Furyl)-2-methoxy-6,7-dimethylimidazo[1,5-a]pyrido[3,2-e]pyrazine]"
–,7.00 to 8.00,"COc1ccc2nc(Cl)c3c(C)nc(CCC(F)(F)F)n3c2n1 [Example 41, 6-Chloro-2-methoxy-7-methyl-9-(3,3,3-trifluoropropyl)imidazo[1,5-a]pyrido[3,2-e]pyrazine]"
–,> 8.00,"COc1cccc(-c2nc(C)c3c(C)nc4ccc(OC)nc4n23)c1 [Example 62, 2-Methoxy-9-(3-methoxyphenyl)-6,7-dimethylimidazo[1,5-a]pyrido[3,2-e]pyrazine]"
–,7.00 to 8.00,"COc1ccc2nc(C)c3c(C)nc(-c4cccc(OC(F)(F)F)c4)n3c2n1 [Example 63, 2-Methoxy-6,7-dimethyl-9-[3-(trifluoromethoxy)phenyl]imidazo[1,5-a]pyrido[3,2-e]pyrazine]"
–,< 7.00,"COc1ccc2nc(C)c3c(C)nc(-c4ccc(-c5ccccc5)cc4)n3c2n1 [Example 72, 9-Biphenyl-4-yl-2-methoxy-6,7-dimethylimidazo[1,5-a]pyrido[3,2-e]pyrazine]"
> 8.00,–,"CCCc1nc(C)c2c(Cl)nc3ccc(OCC)nc3n12 [Example 2, 6-Chloro-2-ethoxy-7-methyl-9-propylimidazo[1,5-a]pyrido[3,2-e]pyrazine]"
–,7.00 to 8.00,"COc1ccc2nc(C)c3c(C)nc(-c4ccc(Cl)cc4OC)n3c2n1 [Example 90, 9-(4-Chloro-2-methoxyphenyl)-2-methoxy-6,7-dimethylimidazo[1,5-a]pyrido[3,2-e]pyrazine]"
–,7.00 to 8.00,"CONC(=O)c1cccc(-c2nc(C)c3c(C)nc4ccc(OC)nc4n23)c1 [Example 102, N-Methoxy-3-(2-methoxy-6,7-dimethylimidazo[1,5-a]pyrido[3,2-e]pyrazin-9-yl)benzamide]"
7.00 to 8.00,–,"COc1ccc2nc(C)c3c(C)nc(-c4cccnc4)n3c2n1 [Example 10, 2-Methoxy-6,7-dimethyl-9-pyridin-3-ylimidazo[1,5-a]pyrido[3,2-e]pyrazine]"
> 8.00,–,"CCOc1ccc2nc(C)c3c(C)nc(-c4ccccc4Cl)n3c2n1 [Example 4, 9-(2-Chlorophenyl)-2-ethoxy-6,7-dimethylimidazo[1,5-a]pyrido[3,2-e]pyrazine]"
7.00 to 8.00,–,"COc1ccc2nc(C)c3c(C)nc(-c4cc(Cl)cc(Cl)c4)n3c2n1 [Example 6, 9-(3,5-Dichlorophenyl)-2-methoxy-6,7-dimethylimidazo[1,5-a]pyrido[3,2-e]pyrazine]"

pIC50 (Table 7),pIC50 (Table 8),SMILES
–,7.00 to 8.00,"COc1ccc2nc(C)c3c(C)nc(-c4ccc(C#N)cc4)n3c2n1 [Example 74, 4-(2-Methoxy-6,7-dimethylimidazo[1,5-a]pyrido[3,2-e]pyrazin-9-yl)benzonitrile]"
–,7.00 to 8.00,"COc1ccc2nc(N)c3c(C)nc(CCC(F)(F)F)n3c2n1 [Example 44, 2-Methoxy-7-methyl-9-(3,3,3-trifluoropropyl)imidazo[1,5-a]pyrido[3,2-e]pyrazin-6-amine]"
–,> 8.00,"COc1ccc2nc(C)c3c(C)nc(-c4ccc(F)cc4C)n3c2n1 [Example 82, 9-(4-Fluoro-2-methylphenyl)-2-methoxy-6,7-dimethylmidazo[1,5-a]pyrido[3,2-e]pyrazine]"
7.00 to 8.00,–,"COc1ccc2nc(C)c3c(C)nc(-c4ccncc4)n3c2n1 [Example 11, 2-Methoxy-6,7-dimethyl-9-pyridin-4-ylimidazo[1,5-a]pyrido[3,2-e]pyrazine]"
–,> 8.00,"COc1ccc2nc(C)c3c(C)nc(-c4cccc(Cl)c4Cl)n3c2n1 [Example 89, 9-(2,3-dichlorophenyl)-2-methoxy-6,7-dimethylimidazo[1,5-a]pyrido[3,2-e]pyrazine]"
–,7.00 to 8.00,"COc1ccc(C#Cc2nc(C)c3c(C)nc4ccc(OC)nc4n23)cc1 [Example 77, 2-Methoxy-9-[(4-methoxyphenyl)ethynyl]-6,7-dimethylimidazo[1,5-a]pyrido[3,2-e]pyrazine]"
–,7.00 to 8.00,"COc1ccc2nc(C)c3c(C)nc(-c4ccccc4-c4ccccc4)n3c2n1 [Example 70, 9-Biphenyl-2-yl-2-methoxy-6,7-dimethylimidazo[1,5-a]pyrido[3,2-e]pyrazine]"
> 8.00,–,"COc1ccc2nc(C)c3c(C)nc(-c4ccc(C)cc4F)n3c2n1 [Example 14, 9-(2-Fluoro-4-methylphenyl)-2-methoxy-6,7-dimethylimidazo[1,5-a]pyrido[3,2-e]pyrazine]"
–,7.00 to 8.00,"COc1ccc2nc(C)c3c(C)nc(-c4ccco4)n3c2n1 [Example 60, 9-(2-Furyl)-2-methoxy-6,7-dimethylimidazo[1,5-a]pyrido[3,2-e]pyrazine]"
–,< 7.00,"CNC(=O)c1ccc(F)c(-c2nc(C)c3c(C)nc4ccc(OC)nc4n23)c1 [Example 107, 4-Fluoro-3-(2-methoxy-6,7-dimethylimidazo[1,5-a]pyrido[3,2-e]pyrazin-9-yl)-N-methylbenzamide]"
–,< 7.00,"COc1cccc(C#Cc2nc(C)c3c(C)nc4ccc(OC)nc4n23)c1 [Example 94, 2-Methoxy-9-[(3-methoxyphenyl)ethynyl]-6,7-dimethylimidazo[1,5-a]pyrido[3,2-e]pyrazine]"
–,< 7.00,"COc1ccc2nc(C)c3c(C)nc(-c4cccc(C(=O)N5CCCCC5)c4)n3c2n1 [Example 105, 2-Methoxy-6,7-dimethyl-9-[3-(piperidin-1-ylcarbonyl)phenyl]imidazo[1,5-a]pyrido[3,2-e]pyrazine]"
7.00 to 8.00,–,"COc1ccc2nc(C)c3c(C)nc(-c4cnccc4OC)n3c2n1 [Example 30, 2-Methoxy-9-(4-methoxypyridin-3-yl)-6,7-dimethylimidazo[1,5-a]pyrido[3,2-e]pyrazine]"
–,< 7.00,"COc1ccc2nc(N3CCC3)c3c(C)nc(CCC(F)(F)F)n3c2n1 [Example 43, 6-Azetidin-1-yl-2-methoxy-7-methyl-9-(3,3,3-trifluoropropyl)imidazo[1,5-a]pyrido[3,2-e]pyrazine]"
–,7.00 to 8.00,"COc1ccc2nc(C)c3c(C)nc(C#CC4CC4)n3c2n1 [Example 97, 9-(Cyclopropylethynyl)-2-methoxy-6,7-dimethylmidazo[1,5-a]pyrido[3,2-e]pyrazine]"
–,7.00 to 8.00,"COc1ccc2nc(C)c3c(C)nc(-c4ccc(F)cc4OC)n3c2n1 [Example 86, 9-(4-Fluoro-2-methoxyphenyl)-2-methoxy-6,7-dimethylmidazo[1,5-a]pyrido[3,2-e]pyrazine]"
–,< 7.00,"COc1ccc2nc(C)c3c(C)nc(C#Cc4ccc(F)cc4)n3c2n1 [Example 76, 9-[(4-Fluorophenyl)ethynyl]-2-methoxy-6,7-dimethylimidazo[1,5-a]pyrido[3,2-e]pyrazine]"
